Results on one molecule are retold here after patent US12338199B2, “Bis-octahydrophenanthrene carboxamides and protein conjugates thereof” (REGENERON PHARMACEUTICALS, INC., priority 2017, dated 2025).

“And” between values parts separate entries of the source, which are not always exact repeats. Identical values can stand only once. Like-named read-outs stand apart in the source and are kept apart here.

One test relates to THP1/LXR-Luc cells. The test is described as follows: LXR-luciferase reporter bioassay in PMA-differentiated THP1/LXR-Luc cells. The conditions noted are these: for EC50: Homo sapiens, THP-1, 48 h, read-out: EC50. The class given is cell-based, human. The source says:
To test the efficacy of anti-MSR1 antibody-LXR conjugates in vitro, a cell-based LXR responsive luciferase reporter assay was developed. To generate the assay cell line, a LXR regulated luciferase reporter gene [Cignal Lenti LXR Reporter (luc) kit (Qiagen, Cat # CLS-001L)] was transduced into THP1 cells, and cells were selected for two weeks in puromycin. The lentivirus expresses the firefly luciferase gene under the control of a minimal CMV promoter and tandem repeats of the LXR transcriptional response element. The resulting cell line is referred to as THP1/LXR-Luc cells.
THP1/LXR-Luc cells were seeded onto 96 well plates at 40,000 cells/well in media containing RPMI supplemented with 10% FBS and pencillin/streptomycin and subsequently differentiated with 200 nM Phorbol Myristate Acetate (PMA) for 3 days. After the 3-day differentiation period, three-fold serial dilutions of antibody drug conjugates, unconjugated antibodies, or free payloads in fresh media were added to the cells at final concentration ranging from 100 nM to 0.01 nM. Media alone served as a blank control. Forty-eight hours later, luciferase activity was determined after the addition of One-Glo™ reagent (Promega, Cat # E6130) to each well. Relative light units (RLUs) were measured on a Victor luminometer (PerkinElmer) and EC50 values were determined using a four-parameter logistic equation over a 10-point dose response curve (GraphPad Prism). The signal to noise (S/N) was determined by calculating the ratio of RLU of standard one over RLU of standard eight for each of the unconjugated anti-MSR1 antibodies or free payloads. “LP #” represents a linker-payload for which the corresponding structures are provided elsewhere herein, and “P #” represents a payload for which the corresponding structures are provided elsewhere herein.

Another test relates to ABCA1. Kind of test: ABCA1 mRNA induction in differentiated THP-1 macrophages (TaqMan). The conditions noted are these: THP1 macrophages, 24-hour treatment; magnitude in words. The format is cell-based, human. The procedure: To determine the ability of LXR agonists to activate ABCA1 and ABCG1 genes, the mRNA levels of these two genes in differentiated macrophages was measured. […] Cells were differentiated into macrophages by treatment with 100 nM Phorbol-12 myristate 13-acetate (Sigma, # P8139), which was added to the media described above, for 72 hours. […] Chloroform was then used for phase separation. The aqueous phase, containing total RNA, was purified using MagMAX™-96 for Microarrays Total RNA Isolation Kit (Ambion, Cat # AM1830) and reverse-transcribed into cDNA using SuperScript® VILO™ Master Mix (Invitrogen, Cat #11755050) as per the manufacturer's instructions. TaqMan® was performed using Gene Expression Master Mix, the ABI 7900HT Sequence Detection System (Applied Biosystems) and the primers and probes indicated below in Table 9. The GAPDH gene was used as the internal control gene to normalize any cDNA input differences.
In general terms: In qPCR the cycle at which signal appears reflects the starting amount.

A further test addresses T1, LXR alpha (Homo sapiens, UniProt Q13133).
T1 construct: LXR alpha or beta LBD-GST; purchased ThermoFisher PV4655
T1 sequence (Q13133 209-447 limits assumed): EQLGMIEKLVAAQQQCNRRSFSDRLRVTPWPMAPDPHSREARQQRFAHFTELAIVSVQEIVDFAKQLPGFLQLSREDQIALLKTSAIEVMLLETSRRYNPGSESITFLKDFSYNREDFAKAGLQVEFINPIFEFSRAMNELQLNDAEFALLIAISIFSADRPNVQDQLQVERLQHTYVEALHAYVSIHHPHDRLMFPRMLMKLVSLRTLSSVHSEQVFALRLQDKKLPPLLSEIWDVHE
Kind of test: LanthaScreen TR-FRET LXR alpha Coactivator Assay (cell-free binding). The conditions noted are these: TR-FRET, 12-point curve; read-out: Cell free binding LXRα IC50.

The test system of the next test is THP-1 cells. Kind of test: BODIPY-cholesterol efflux in THP-1 macrophages. The format is cell-based, human. The conditions noted are these: for EC50: Homo sapiens, THP-1. The procedure:
The ability of anti-MSR1 antibody-LXR conjugates to activate cholesterol efflux in a human macrophage cell line (THP-1; ATCC Catalog # TIB-202), was assessed using a fluorescent cholesterol analog.
Cells were differentiated into macrophages by addition of 100 nM Phorbol-12 myristate 13-acetate (Sigma, Catalog #P 8139) to the media and subjected to further incubation for 96 hours.
Percentage of BODIPY-cholesterol efflux was calculated using the following formula: [fluorescence in acceptor media/(fluorescence in acceptor media+fluorescence in cell lysate)]×100. Table 15 provides activated cholesterol efflux for the tested articles, and FIG. 15 illustrates the data in graph form.

Usually EC50 stands for the concentration needed to bring the measured effect to its halfway point. By IC50 is commonly meant the concentration that inhibits the measured activity by half.

On to `C[C@]1(C(=O)NC(=O)[C@@]2(C)CCC[C@]3(C)c4cc(O)ccc4CC[C@@H]23)CCC[C@]2(C)c3cc(N)ccc3CC[C@@H]12` [Compound 9d, (1S,4aS,10aR)—N-[(1S,4aS,10aR)-6-Amino-1,4a-dimethyl-1,2,3,4,4a,9,10,10a-octahydrophenanthrene-1-carbonyl]-6-hydroxy-1,4a-dimethyl-1,2,3,4,4a,9,10,10a-octahydrophenanthrene-1-carboxamide], for which the EC50 stood at 15.9 nM in the test with THP1/LXR-Luc cells (48-hour time point, stimulation of THP1/Luc cells); 1.14 nM in the test on THP1/LXR-Luc cells (PMA-differentiated THP1/LXR-Luc cells, 48 hours, luciferase activity (One-Glo), 10-point dose response 100 nM to 0.01 nM); 0.15 nM in the test with THP-1 cells (24-hour treatment, read-out: Cholesterol Efflux activation EC50); 0.15 nM in the test with THP-1 cells (after 24 hours, read-out: Cholesterol efflux EC50). In addition, the “S/N (signal to noise, ratio of RLU of standard one over RLU of standard eight)” value with THP1/LXR-Luc cells (PMA-differentiated THP1/LXR-Luc cells, 48 hours, luciferase activity) is 15.9. In addition, in the test with ABCA1, the “ABCA1 induction EC50” value is given as “sub-picomolar”. In addition, the IC50 at LXR alpha was under 10 nM. For the same molecule, in the test on THP-1 cells (24-hour treatment, BODIPY-cholesterol efflux), the “Maximum efflux (%)” value is 36.6% and 36.7%.
